Measurements taken from ChEMBL document CHEMBL5113519, “Discovery of Novel Imidazo[4,5-c]quinoline Derivatives to Treat Inflammatory Bowel Disease (IBD) by Inhibiting Multiple Proinflammatory Signaling Pathways and Restoring Intestinal Homeostasis” (J Med Chem, 2022).
Calls of active or inactive are those of the source. The rule behind the calls is not given here.

What was measured:
[1] = tested on: THP1-Dual; assay: Anti-inflammatory activity against LPS-stimulated human THP1-Dual cells assessed as reduction in phosphorylation of NF-kappa B level incubated for 6 hrs by Western blot analysis; assay type: functional, cell-based; conditions: dose 0.33-3 µM, DDE = dose-dependent effect
[2] = tested on: Mus musculus; assay: Antiinflammatory activity in DSS-induced acute colitis C57BL/6 mouse model assessed as reduction in bloody stool by measuring DAI score at 1 to 3 mg/kg, po administered daily and measured upto 11 days; assay type: functional, organism-based; conditions: dose 1-3 mg/kg, time <= 11.0 day
[3] = tested on: Mus musculus; assay: Antiinflammatory activity in DSS-induced acute colitis C57BL/6 mouse model assessed as reduction in intestinal edema in colon by measuring histopathological score at 1 to 3 mg/kg, po by H and E staining based analysis; assay type: functional, organism-based; conditions: dose 1-3 mg/kg
[4] = tested on: Mus musculus; assay: Anti-inflammatory activity in TNBS induced IBD BALB/c mouse model assessed as reduction in weight by measuring disease activity index score at 1 to 5 mg/kg via oral gavage administered daily for 12 days measured daily; assay type: functional, organism-based; conditions: dose 1-5 mg/kg, time 12.0 day
[5] = Toxicity in mouse assessed as abnormality in gastrointestinal tract at 20 to 50 mg/kg, IG measured upto 2 weeks; assay type: organism-based; conditions: in vivo, po, 336 h, dose 20-50 mg/kg
[6] = Toxicity in mouse assessed as effect on red blood cell number at 20 to 50 mg/kg, IG measured upto 2 weeks; assay type: organism-based; conditions: in vivo, po, 336 h, dose 20-50 mg/kg
[7] = Toxicity in mouse assessed as drug tolerability at 20 to 50 mg/kg, IG measured upto 2 weeks; assay type: organism-based; conditions: in vivo, po, 336 h, dose 20-50 mg/kg
[8] = tested on: Mus musculus; assay: Anti-inflammatory bowl disease activity in DSS-induced acute enteritis mouse model assessed as increase in norank_f_Muribaculaceae abundance at 3 mg/kg; assay type: functional, organism-based
[9] = tested on: THP1-Dual; assay: Inhibition of LPS induced TNF alpha expression in human THP1-Dual cells at 1 uM incubated for 6 hrs; assay type: functional, cell-based
[10] = target: Tyrosine-protein kinase JAK2 (Homo sapiens, UniProt O60674)
Sequence of Tyrosine-protein kinase JAK2 (O60674 whole entry): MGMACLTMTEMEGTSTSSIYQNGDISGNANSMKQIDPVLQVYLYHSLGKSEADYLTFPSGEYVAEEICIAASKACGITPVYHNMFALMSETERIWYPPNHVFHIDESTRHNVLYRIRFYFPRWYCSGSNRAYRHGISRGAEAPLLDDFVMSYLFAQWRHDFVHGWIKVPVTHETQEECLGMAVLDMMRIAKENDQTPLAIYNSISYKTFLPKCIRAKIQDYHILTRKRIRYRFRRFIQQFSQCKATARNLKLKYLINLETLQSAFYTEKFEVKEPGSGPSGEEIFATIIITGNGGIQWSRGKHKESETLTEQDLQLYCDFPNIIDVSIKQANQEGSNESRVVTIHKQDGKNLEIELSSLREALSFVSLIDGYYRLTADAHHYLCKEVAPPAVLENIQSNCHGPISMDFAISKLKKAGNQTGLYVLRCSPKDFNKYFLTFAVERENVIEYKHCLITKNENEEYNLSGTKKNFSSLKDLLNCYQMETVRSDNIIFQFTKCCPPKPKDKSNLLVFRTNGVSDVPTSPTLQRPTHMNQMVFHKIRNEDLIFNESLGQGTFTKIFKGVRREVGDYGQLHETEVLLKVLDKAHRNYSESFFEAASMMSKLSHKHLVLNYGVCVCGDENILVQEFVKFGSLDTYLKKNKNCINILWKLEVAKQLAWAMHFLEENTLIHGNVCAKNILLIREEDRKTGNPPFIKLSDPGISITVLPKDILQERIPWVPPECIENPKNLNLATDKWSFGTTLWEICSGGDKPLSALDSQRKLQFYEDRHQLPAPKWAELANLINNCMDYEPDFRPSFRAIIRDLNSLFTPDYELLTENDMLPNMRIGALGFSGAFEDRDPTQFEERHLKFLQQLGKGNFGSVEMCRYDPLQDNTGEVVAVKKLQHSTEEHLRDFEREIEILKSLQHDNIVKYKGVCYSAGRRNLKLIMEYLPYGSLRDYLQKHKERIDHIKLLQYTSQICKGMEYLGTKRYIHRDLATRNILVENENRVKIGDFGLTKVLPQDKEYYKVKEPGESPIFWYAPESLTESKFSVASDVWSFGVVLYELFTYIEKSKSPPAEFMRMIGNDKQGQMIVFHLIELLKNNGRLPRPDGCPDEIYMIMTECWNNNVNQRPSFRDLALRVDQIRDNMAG
Description: Inhibition of JAK2 (unknown origin) using Kinase/Tyr 6 peptide as substrate incubated for 1 hrs in presence of ATP by fluorescence microplate reader analysis

[11] = target: T1, Tyrosine-protein kinase JAK3 (Homo sapiens, UniProt P52333)
T1 sequence (P52333 whole entry): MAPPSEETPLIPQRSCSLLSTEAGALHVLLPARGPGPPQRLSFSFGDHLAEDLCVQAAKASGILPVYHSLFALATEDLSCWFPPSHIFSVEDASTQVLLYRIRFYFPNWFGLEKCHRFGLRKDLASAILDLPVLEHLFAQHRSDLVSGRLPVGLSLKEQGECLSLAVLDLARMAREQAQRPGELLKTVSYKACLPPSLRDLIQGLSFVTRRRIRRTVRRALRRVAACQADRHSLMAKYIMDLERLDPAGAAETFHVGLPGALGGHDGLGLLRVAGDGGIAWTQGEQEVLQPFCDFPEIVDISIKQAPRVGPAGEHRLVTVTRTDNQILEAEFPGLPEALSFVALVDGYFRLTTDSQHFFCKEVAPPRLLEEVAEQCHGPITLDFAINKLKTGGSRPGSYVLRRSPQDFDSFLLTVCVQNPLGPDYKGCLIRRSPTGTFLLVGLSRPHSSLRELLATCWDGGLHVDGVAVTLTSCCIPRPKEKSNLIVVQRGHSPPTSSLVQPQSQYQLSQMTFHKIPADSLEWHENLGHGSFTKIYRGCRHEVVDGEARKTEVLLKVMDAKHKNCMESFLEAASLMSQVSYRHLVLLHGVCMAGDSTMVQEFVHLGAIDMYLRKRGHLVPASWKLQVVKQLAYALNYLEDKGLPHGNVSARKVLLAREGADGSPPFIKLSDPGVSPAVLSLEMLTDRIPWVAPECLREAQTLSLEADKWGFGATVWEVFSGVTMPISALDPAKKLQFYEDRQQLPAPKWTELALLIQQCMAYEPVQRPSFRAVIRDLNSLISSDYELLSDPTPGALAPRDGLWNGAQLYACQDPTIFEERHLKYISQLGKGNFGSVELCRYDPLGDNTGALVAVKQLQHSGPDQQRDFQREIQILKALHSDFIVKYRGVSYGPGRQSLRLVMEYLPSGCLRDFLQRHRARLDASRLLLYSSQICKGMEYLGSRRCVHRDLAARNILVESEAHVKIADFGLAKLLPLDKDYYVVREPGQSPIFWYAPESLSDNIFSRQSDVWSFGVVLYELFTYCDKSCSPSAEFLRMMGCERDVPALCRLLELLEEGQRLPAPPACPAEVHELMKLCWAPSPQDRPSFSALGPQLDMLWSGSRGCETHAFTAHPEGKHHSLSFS
Description: Inhibition of JAK3 (unknown origin) using Kinase/Tyr 6 peptide as substrate incubated for 1 hrs in presence of ATP by fluorescence microplate reader analysis

Cc1nc2cnc3ccc(-c4cc(Cl)c(O)c(Cl)c4)cc3c2n1C1CCN(C)CC1
Activity [1]: Dde | Activity [2]: Active | Activity [3]: Active | Activity [4]: Active | Activity [5]: Non-Toxic | Activity [6]: Non-Toxic | Activity [7]: Non-Toxic | Activity [8]: Active | inhibition [9]: Active | IC50 [10]: 15 nM | IC50 [11]: 46.2 nM
